# Data published in patent US11590142B2, “Oxazolidinone antibiotic compounds and process of preparation” (Bugworks Research, Inc., priority 2018, dated 2023).
# Key:
# Type in all cases: cell-based
# [1] = tested on: Acinetobacter baumannii ATCC 19606; experiment: Minimum Inhibitory Concentration (MIC) in LB media; conditions: ATCC19606
# Method: (§1) Biological Activity (Antibacterial activity): The compounds of Formula (I) are of interest due to their potent antibacterial effects. […] The medium sterility is checked by incubating at 37° C. for a period of 48 h. Bacterial cultures that are stored as glycerol stocks at -80° C. are sub cultured on LB agar plates to obtain isolated colonies. A single colony of each strain is cultured in LB broth. The cultures are incubated at 37° C., 200 rpm till they reach an optical density (OD at 600 nm) of 0.8 to 1. […] Test compounds are dissolved in dimethyl sulfoxide (DMSO) to a stock concentration of 4 mg/mi. A twofold dilution series of this DMSO stock is prepared in a 96 well V bottom microtitre plate from rows A to H. A 3 μL volume of these dilutions are transferred to a 96-well flat bottom microtitre assay plate. Controls to monitor the effects of DMSO and media sterility are included. Each well is inoculated with 150 μL of the above diluted culture. The plates are incubated at 37° C. overnight in a humidified incubator. The following morning, the plates are read using a Spectrophotometer at 600 nm wavelength.
# [2] = tested on: Enterococcus faecalis ATCC 29212; experiment: Minimum Inhibitory Concentration (MIC) in LB media; conditions: ATCC29212, read-out: Minimum Inhibitory Concentration E. faecalis ATCC 29212
# Method: as §1
# [3] = tested on: Escherichia coli ATCC 25922; experiment: Minimum Inhibitory Concentration (MIC) in LB media; conditions: ATCC25922, read-out: Minimum Inhibitory Concentration E. coli ATCC 25922
# Method: as §1
# [4] = tested on: Klebsiella pneumoniae ATCC 13883; experiment: Minimum Inhibitory Concentration (MIC) in LB media; conditions: ATCC13883, read-out: Minimum Inhibitory Concentration K. pneumoniae ATCC 13883
# Method: as §1
# [5] = tested on: Pseudomonas aeruginosa ATCC 27853; experiment: Minimum Inhibitory Concentration (MIC) in LB media; conditions: ATCC27853, read-out: Minimum Inhibitory Concentration P. aurigenosa ATCC 27853
# Method: as §1
# [6] = tested on: Staphylococcus aureus ATCC 29213; experiment: Minimum Inhibitory Concentration (MIC) in LB media; conditions: ATCC29213, read-out: Minimum Inhibitory Concentration S. aureus ATCC 29213
# Method: as §1
# E. coli clinical strains = experiment: Antibacterial susceptibility studies (MIC50 and MIC90), clinical strains, CLSI guidelines; conditions: for MIC50 / MIC90: Escherichia coli; for MIC50: read-out: MIC50; for MIC90: read-out: MIC90
# [7] = tested on: A. baumannii clinical strains; experiment: as above; conditions: for MIC50 / MIC90: Acinetobacter baumannii; for MIC50: read-out: MIC50; for MIC90: read-out: MIC90; for Minimum (MIC): in µg/mL
# [8] = tested on: K. pneumoniae clinical strains; experiment: as above; conditions: for MIC50 / MIC90: Klebsiella pneumoniae; for MIC50: read-out: MIC50; for MIC90: read-out: MIC90
# [9] = tested on: P. aurigenosa clinical strains; experiment: as above; conditions: for MIC50: read-out: MIC50; for MIC90: read-out: MIC90
# [10] = tested on: E. cloacae clinical strains; experiment: as above; conditions: for MIC50 / MIC90: Enterobacter cloacae; for MIC50: read-out: MIC50; for MIC90: read-out: MIC90
# E. coli ATCC25922 = experiment: Antibacterial susceptibility study, reference strain, CLSI guidelines
# A. baumannii ATCC19606 = experiment: as above
# K. pneumoniae ATCC13883 = experiment: as above
# P. aurigenosa ATCC27853 = experiment: as above
# [11] = target: human ether a go-go related gene (hERG) K+ channel (Homo sapiens (Human), UniProt Q12809); experiment: hERG inhibition assay, QPatch HTX automated electrophysiology; conditions: CHO cell line stably expressing hERG, whole-cell patch clamp, maximum test concentration 300 μM
# Sequence of human ether a go-go related gene (hERG) K+ channel (Q12809 whole entry): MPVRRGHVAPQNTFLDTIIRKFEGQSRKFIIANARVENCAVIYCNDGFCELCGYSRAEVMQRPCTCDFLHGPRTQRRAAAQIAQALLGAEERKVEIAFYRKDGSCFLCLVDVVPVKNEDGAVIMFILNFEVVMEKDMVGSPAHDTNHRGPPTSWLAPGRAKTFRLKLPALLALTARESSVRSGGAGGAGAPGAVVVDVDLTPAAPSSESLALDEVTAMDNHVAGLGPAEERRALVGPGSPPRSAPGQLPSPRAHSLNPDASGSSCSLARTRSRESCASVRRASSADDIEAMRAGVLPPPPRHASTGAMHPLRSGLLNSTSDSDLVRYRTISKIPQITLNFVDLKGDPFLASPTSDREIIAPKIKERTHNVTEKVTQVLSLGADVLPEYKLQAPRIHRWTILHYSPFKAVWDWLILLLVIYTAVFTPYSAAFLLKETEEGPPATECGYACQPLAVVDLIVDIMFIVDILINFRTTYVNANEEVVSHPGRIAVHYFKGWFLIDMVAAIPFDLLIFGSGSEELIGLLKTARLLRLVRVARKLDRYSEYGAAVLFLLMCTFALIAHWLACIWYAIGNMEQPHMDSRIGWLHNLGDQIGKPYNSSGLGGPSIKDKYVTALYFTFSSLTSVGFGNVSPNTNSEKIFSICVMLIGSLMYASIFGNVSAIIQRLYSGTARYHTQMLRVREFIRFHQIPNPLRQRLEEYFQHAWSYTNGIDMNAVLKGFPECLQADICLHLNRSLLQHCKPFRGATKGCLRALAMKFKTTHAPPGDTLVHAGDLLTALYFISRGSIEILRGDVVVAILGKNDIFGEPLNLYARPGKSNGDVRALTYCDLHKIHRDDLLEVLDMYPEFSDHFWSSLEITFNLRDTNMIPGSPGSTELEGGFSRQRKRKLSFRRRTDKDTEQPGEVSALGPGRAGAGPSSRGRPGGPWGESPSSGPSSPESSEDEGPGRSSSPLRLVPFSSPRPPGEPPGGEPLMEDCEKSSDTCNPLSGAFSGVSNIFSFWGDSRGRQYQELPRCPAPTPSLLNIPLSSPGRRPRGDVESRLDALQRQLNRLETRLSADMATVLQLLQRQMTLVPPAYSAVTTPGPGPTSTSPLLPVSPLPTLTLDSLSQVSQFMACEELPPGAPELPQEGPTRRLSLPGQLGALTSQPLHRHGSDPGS
# Method: The compounds were tested for inhibition of the human ether a go-go related gene (hERG) K+ channel using QPatch HTX automated electrophysiology. […] Compounds were solubilised to 100 mM in DMSO before dilution in HBPS to 300 μM. […] Electrophysiological recordings were made from a Chinese Hamster Ovary cell line stably expressing the full-length hERG potassium channel. Single cell ionic currents were measured in whole-cell patch clamp configuration at room temperature (21-23° C.) using the QPatch HTX platform (Sophion). Intracellular solution contained (mM): 120 KF, 20 KCl, 10 EGTA, 10 HEPES and was buffered to pH 7.3. […] Cells were clamped at a holding potential of −80 mV. Cells were stepped to +20 mV for 2 s then −40 mV for 3s before returning to the holding potential. This sweep was repeated 10 times at 10 s intervals. hERG currents were measured from the tail step and referenced to the holding current. Compounds were then incubated for 2 minutes prior to a second measurement of ion channel current using an identical pulse train.
SMILES,MIC [1] [µg/mL],MIC [2] [µg/mL],MIC [3] [µg/mL],MIC [4] [µg/mL],MIC [5] [µg/mL],MIC [6] [µg/mL],Minimum (MIC) (E. coli clinical strains) [µg/mL],MIC50 (E. coli clinical strains) [µg/mL],MIC90 (E. coli clinical strains) [µg/mL],MIC50 [7] [µg/mL],MIC90 [7] [µg/mL],Minimum (MIC) [7],Minimum (MIC) [8] [µg/mL],MIC50 [8] [µg/mL],MIC90 [8] [µg/mL],Minimum (MIC) [9] [µg/mL],MIC50 [9] [µg/mL],MIC90 [9] [µg/mL],Minimum (MIC) [10] [µg/mL],MIC50 [10] [µg/mL],also measured
"Cn1c(=O)cnc2ccc(OCCNC[C@H]3CN(c4cnc5c(n4)NC(=O)CO5)C(=O)O3)nc21 [Compound 7, (S)-6-(5-(((2-((4-methyl-3-oxo-3,4-dihydropyrido[2,3-b]pyrazin-6-yl)oxy)ethyl)amino)methyl)-2-oxooxazolidin-3-yl)-2H-pyrazino[3,2-b][1,4]oxazin-3(4H)-one]",0.25,0.25,0.06,0.13,1,0.06,0.03,0.25,0.5,0.5,0.5,0.06,0.125,1,4,0.06,0.5,2,0.06,0.5,MIC90 [10]: 2 µg/mL; ATCC25922 (MIC) (E. coli ATCC25922): 0.06 µg/mL; ATCC19606 (MIC) (A. baumannii ATCC19606): 0.25 µg/mL; ATCC13883 (MIC) (K. pneumoniae ATCC13883): 0.13 µg/mL; ATCC27853 (MIC) (P. aurigenosa ATCC27853): 1 µg/mL; IC50 [11]: > 300 µM
"Cn1c(=O)ccc2ncc(OCCNC[C@H]3CN(c4cnc5c(n4)NC(=O)CS5)C(=O)O3)nc21 [Compound 14, (S)-5-(((2-((5-Methyl-6-oxo-5,6-dihydropyrido[2,3-b]pyrazin-3-yl)oxy)ethyl)amino)methyl)-3-(3-oxo-3,4-dihydro-2H-pyrazino[2,3-b][1,4]thiazin-6-yl)oxazolidin-2-one]",0.03,0.03,0.03,0.03,0.5,≤ 0.03,0.03,0.06,0.25,0.25,0.5,0.03,0.03,0.25,0.5,0.06,0.5,1,0.03,0.25,MIC90 [10]: 0.5 µg/mL; ATCC25922 (MIC) (E. coli ATCC25922): 0.03 µg/mL; ATCC19606 (MIC) (A. baumannii ATCC19606): 0.03 µg/mL; ATCC13883 (MIC) (K. pneumoniae ATCC13883): 0.03 µg/mL; ATCC27853 (MIC) (P. aurigenosa ATCC27853): 0.5 µg/mL; IC50 [11]: > 150 µM
